Assay results taken from ChEMBL document CHEMBL3739419, “Influence of Sugar Amine Regiochemistry on Digitoxigenin Neoglycoside Anticancer Activity” (ACS Med Chem Lett, 2015).

These compounds were tested on A549 (assay: Anticancer activity against human A549 cells by alamar blue assay).
Assay type: functional, cell-based

Compared with `CON([C@H]1CC[C@@]2(C)[C@H](CC[C@@H]3[C@@H]2CC[C@]2(C)[C@@H](C4=CC(=O)OC4)CC[C@]32O)C1)[C@@H]1O[C@H](CO)[C@@H](N=[N+]=[N-])[C@H](O)[C@H]1O`, `CON([C@H]1CC[C@@]2(C)[C@H](CC[C@@H]3[C@@H]2CC[C@]2(C)[C@@H](C4=CC(=O)OC4)CC[C@]32O)C1)[C@@H]1O[C@H](CO)[C@@H](O)[C@H](N=[N+]=[N-])[C@H]1O` is 3-fold higher in IC50: 130 nM for the first, 390 nM for the second.

First: CON([C@H]1CC[C@@]2(C)[C@H](CC[C@@H]3[C@@H]2CC[C@]2(C)[C@@H](C4=CC(=O)OC4)CC[C@]32O)C1)[C@@H]1OC[C@@H](O)[C@H](N=[N+]=[N-])[C@H]1O
Second: CON([C@H]1CC[C@@]2(C)[C@H](CC[C@@H]3[C@@H]2CC[C@]2(C)[C@@H](C4=CC(=O)OC4)CC[C@]32O)C1)[C@@H]1OC[C@@H](N=[N+]=[N-])[C@H](O)[C@H]1O
The IC50 of the first is 2-fold lower: 17 nM for the first, 34 nM for the second. The first is the more potent here.

Going from `CON([C@H]1CC[C@@]2(C)[C@H](CC[C@@H]3[C@@H]2CC[C@]2(C)[C@@H](C4=CC(=O)OC4)CC[C@]32O)C1)[C@@H]1O[C@H](CO)[C@@H](O)[C@H](O)[C@H]1O` to `CON([C@H]1CC[C@@]2(C)[C@H](CC[C@@H]3[C@@H]2CC[C@]2(C)[C@@H](C4=CC(=O)OC4)CC[C@]32O)C1)[C@@H]1O[C@H](CO)[C@@H](O)[C@H](N)[C@H]1O`, the IC50 falls from 1600 nM to 34 nM (47-fold).

First: CON([C@H]1CC[C@@]2(C)[C@H](CC[C@@H]3[C@@H]2CC[C@]2(C)[C@@H](C4=CC(=O)OC4)CC[C@]32O)C1)[C@@H]1OC[C@@H](O)[C@H](N)[C@H]1O
Second: CON([C@H]1CC[C@@]2(C)[C@H](CC[C@@H]3[C@@H]2CC[C@]2(C)[C@@H](C4=CC(=O)OC4)CC[C@]32O)C1)[C@@H]1OC[C@@H](N)[C@H](O)[C@H]1O
The IC50 of the first is 4.3-fold lower: 10 nM for the first, 43 nM for the second.

With `CON([C@H]1CC[C@@]2(C)[C@H](CC[C@@H]3[C@@H]2CC[C@]2(C)[C@@H](C4=CC(=O)OC4)CC[C@]32O)C1)[C@@H]1O[C@H](CO)[C@@H](N)[C@H](O)[C@H]1O` the IC50 was 20 nM.
